Tests used:
Assay type in all cases: functional
Mus musculus [1] = species on record: Mus musculus; test: Optimal Dose (OD) which cause maximum increase in the life span, after chronic injection at log (1/C).
Mus musculus [2] = species on record: Mus musculus; test: Optimal Dose (OD) which cause maximum increase in the life span, after singular injection at log (1/C).
Mus musculus [3] = species on record: Mus musculus; test: Minimum Effective Dose (MED) which cause 40% increase in life span, after chronic injection at log (1/C).
Mus musculus [4] = species on record: Mus musculus; test: Minimum Effective Dose (MED) which cause 40% increase in life span, after singular injection at log (1/C).

| Compound | OD (Mus musculus [1]) | OD (Mus musculus [2]) | MED (Mus musculus [3]) | MED (Mus musculus [4]) |
| --- | --- | --- | --- | --- |
| CC1=C(N2CC2)C(=O)C(N2CC2)=C(N2CC2)C1=O | 6.21 | 5.69 | 6.77 | 6.54 |
| COC(CO)C1=C(N2CC2)C(=O)C(C)=C(N2CC2)C1=O (stereo not given) | 5.75 | 5.27 | 6.9 | 6.05 |
| O=C1C=C(N2CC2)C(=O)C(N2CC2)=C1N1CC1 [TRIAZIQUONE] | 6.19 | 5.74 | 6.45 | 6.02 |
| CC1=C(N2CC2)C(=O)C(C(C)COC(N)=O)=C(N2CC2)C1=O (stereo not given) | 5.71 | 5.31 | 6.41 | 5.93 |
| CC1=C(N2CC2)C(=O)C(C(C)C)=C(N2CC2)C1=O | 5.21 | 4.69 | 5.6 | 4.96 |
| CCCC1=C(N2CC2)C(=O)C(C(COC(N)=O)OC)=C(N2CC2)C1=O (stereo not given) | 5.07 | 4.64 | 5.63 | 5.01 |
| CCOC(COC(N)=O)C1=C(N2CC2)C(=O)C(C)=C(N2CC2)C1=O (stereo not given) | 5.22 | 4.62 | 6.18 | 5.53 |
| CCC1=C(N2CC2)C(=O)C(CC)=C(N2CC2)C1=O | 5.09 | 4.79 | 5.46 | 4.94 |
| CCCC1=C(N2CC2)C(=O)C(CCC)=C(N2CC2)C1=O | 4.44 | 4.14 | 4.92 | 4.32 |
| CC(C)C1=C(N2CC2)C(=O)C=C(N2CC2)C1=O | 5.37 | 4.59 | 5.68 | 5.16 |
| CC1=C(N2CC2)C(=O)C(CC(C)OC(N)=O)=C(N2CC2)C1=O (stereo not given) | 5.79 | 5.18 | 6.14 | 5.86 |
| CC1=C(N2CC2)C(=O)C(CCCOC(N)=O)=C(N2CC2)C1=O | 5.93 | 5.48 | 6.18 | 5.55 |
| CCC1=C(N2CC2)C(=O)C(C(COC(N)=O)OC)=C(N2CC2)C1=O (stereo not given) | 5.22 | 4.92 | 6.16 | 5.62 |
| CC1=C(N2CC2)C(=O)C(COc2ccccc2)=C(N2CC2)C1=O | 4.71 | 3.89 | 5.15 | 4.68 |
| CC(C)C1=C(N2CC2)C(=O)C(C(C)C)=C(N2CC2)C1=O | 4.59 | 4.14 | 4.77 | 4.36 |
| CCOC(COC(N)=O)C1=C(N2CC2)C(=O)C(CC)=C(N2CC2)C1=O (stereo not given) | 5.24 | 4.64 | 5.76 | 5.4 |
| CC1=C(N2CC2)C(=O)C(C)=C(N2CC2)C1=O | 5.36 | 4.79 | 5.66 | 5.36 |
| CCC(COC(N)=O)C1=C(N2CC2)C(=O)C(C)=C(N2CC2)C1=O (stereo not given) | 5.66 | 5.2 | 6.18 | 6.03 |
| CCC1=C(N2CC2)C(=O)C(CCOC(N)=O)=C(N2CC2)C1=O | 5.48 | 4.88 | 6.25 | 5.98 |
| O=C1C(CCO)=C(N2CC2)C(=O)C(CCO)=C1N1CC1 | 6.05 | 5.6 | 6.54 | 5.93 |
| COC(COC(N)=O)C1=C(N2CC2)C(=O)C(C)=C(N2CC2)C1=O (stereo not given) [CARBOQUONE] | 5.66 | 5.03 | 6.41 | 5.81 |
| COCCC1=C(N2CC2)C(=O)C(C)=C(N2CC2)C1=O | 5.42 | 5.12 | 5.57 | 5.19 |
| COC1=C(N2CC2)C(=O)C(OC)=C(N2CC2)C1=O | 5.17 | 4.32 | 5.59 | 4.81 |
| CC1=C(N2CC2)C(=O)C(CCCc2ccccc2)=C(N2CC2)C1=O | 4.21 | 3.6 | 4.47 | 3.93 |
| CC1=C(N2CC2)C(=O)C(CCO)=C(N2CC2)C1=O | 5.79 | 5.25 | 6.39 | 5.89 |
| CCC(OC)C1=C(N2CC2)C(=O)C(C)=C(N2CC2)C1=O (stereo not given) | 5.33 | 4.84 | 5.68 | 5.26 |
| COCCC1=C(N2CC2)C(=O)C(CCOC)=C(N2CC2)C1=O | 5.31 | 4.71 | 5.69 | 5.18 |
| CCC1=C(N2CC2)C(=O)C(C)=C(N2CC2)C1=O | 5.37 | 4.52 | 5.86 | 5.16 |
| CCCC1=C(N2CC2)C(=O)C(CCOC(N)=O)=C(N2CC2)C1=O | 5.23 | 4.42 | 5.68 | 4.9 |
| COCCOC(COC(N)=O)C1=C(N2CC2)C(=O)C(C)=C(N2CC2)C1=O (stereo not given) | 5.39 | 4.96 | 6.03 | 5.45 |
